{
  "source": "patent US7981913B2",
  "about": "“Isophthalates as beta-secretase inhibitors” (Bristol-Myers Squibb Company, priority 2005, dated 2011)",
  "data": [
    {"target": "T1, BACE1 enzyme (Homo sapiens, UniProt P56817)", "T1 construct": "The HEK293-9B.A1 cell line, which overexpresses the BACE1 enzyme, was derived from HEK293 cells; endogenous in cells; washed 48,000 x g membrane pellet / cell homogenate", "T1 sequence (P56817 46-501)": "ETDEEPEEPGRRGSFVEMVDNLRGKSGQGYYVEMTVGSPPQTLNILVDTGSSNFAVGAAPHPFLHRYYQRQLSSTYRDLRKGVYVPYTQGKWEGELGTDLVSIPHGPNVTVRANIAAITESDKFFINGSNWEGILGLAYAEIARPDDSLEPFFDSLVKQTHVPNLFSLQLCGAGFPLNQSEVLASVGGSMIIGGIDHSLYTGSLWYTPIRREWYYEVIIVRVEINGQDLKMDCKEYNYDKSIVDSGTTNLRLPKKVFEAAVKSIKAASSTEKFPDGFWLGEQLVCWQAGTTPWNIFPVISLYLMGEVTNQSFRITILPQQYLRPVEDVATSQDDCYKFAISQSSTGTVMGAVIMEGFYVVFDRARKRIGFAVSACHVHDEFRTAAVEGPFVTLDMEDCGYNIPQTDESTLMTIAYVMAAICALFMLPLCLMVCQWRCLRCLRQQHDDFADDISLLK", "experiment": "Radioligand displacement assay with a radiolabeled BACE inhibitor on HEK293-9B.A1 cell homogenate", "type": "binding", "conditions": "displacement of 1 nM tritiated radioligand, HEK293-9B.A1 homogenate, pH 5.0, 1.5 hr at 25° C.; read-out: Activity Rating (based on IC50 values)", "description": "There are a number of methods by which inhibitors of the BACE enzyme can be identified experimentally. The enzyme can be obtained from membrane samples from natural tissues or cultured cells or can be expressed recombinantly in a host cell by well known methods of molecular biology. The whole enzyme or a portion thereof can be expressed, for example, in bacterial, insect or mammalian cells to obtain a catalytically active enzyme species. The enzymatic activity and/or ligand binding capability of the enzyme can be assessed within these membrane samples, or the enzyme can be purified to varying extents. As an illustrative example, the nucleic acid sequence encoding the pro and catalytic domains of human BACE can be appended on the 5′ end with an untranslated and signal sequence from the gene for acetylcholinesterase, and on the 3′ end with a sequence encoding a poly-histidine tag. This cDNA can then be expressed in Drosophila melanogaster S2 cells in which the signal and pro sequences of the transcribed/translated protein are removed by cellular proteases and the catalytic domain, appended by a C-terminal poly-histidine tag, is secreted out into the cellular medium. The enzyme can then be purified from the culture medium by nickel affinity chromatography by methods well known to those trained in the art [Mallender, W. et al., (2001) “Characterization of recombinant, soluble beta-secretase from an insect cell expression system.” Mol. Pharmacol. 59: 619-626]. Similar strategies for expressing and purifying various forms of BACE in bacterial, mammalian and other cell types would be known to one skilled in the art. A preferred method for determining the potency of a test compound in binding to the BACE enzyme is by monitoring the displacement of a suitable radioligand.\nRadioligand displacement assays with a radiolabeled BACE inhibitor (WO 2004 013098, compound 3, where the methoxy group is substituted for C(^3H)3) were carried out using standard methods (Keen, M. (1999) in Receptor Binding Techniques (Walker, J. M. ed) p. 106 Humana Press, Totowa, N.J.). The HEK293-9B.A1 cell line, which overexpresses the BACE1 enzyme, was derived from HEK293 cells (Simmons, N. L. (1990) A cultured human renal epithelioid cell line responsive to vasoactive intestinal peptide. Exp. Physiol. 75:309-19.) by RAGE™ (Harrington, J. J. et al. (2001) Creation of genome-wide protein expression libraries using random activation of gene expression. Nat. Biotechnol. 19:440-5; U.S. Pat. Nos. 6,410,266 and 6,361,972). […]", "units": {"IC50": "nM"}, "values": [
      {"smiles": "CCCCN(C)C(=O)c1cccc(C(=O)N[C@@H](Cc2cc(F)cc(F)c2)[C@H](O)[C@H]2CC(c3ccccc3)CN2)c1", "note": "(stereo partly drawn) [Example 7, N^1-butyl-N^3-((1R,2S)-3-(3,5-difluorophenyl)-1-hydroxy-1-((2R)-4-phenylpyrrolidin-2-yl)propan-2-yl)-N^1-methylisophthalamide]", "IC50": "100 to 1000"},
      {"smiles": "CCCO[C@H]1CN[C@@H]([C@@H](O)[C@H](Cc2cc(F)cc(F)c2)NC(=O)c2cc(C(=O)N3CCC[C@@H]3COC)cc(-c3ncco3)c2)C1", "note": "[Example 11, N-((1R,2S)-3-(3,5-difluorophenyl)-1-hydroxy-1-((2R,4R)-4-propoxypyrrolidin-2-yl)propan-2-yl)-3-((R)-2-(methoxymethyl)pyrrolidine-1-carbonyl)-5-(oxazol-2-yl)benzamide]", "IC50": "< 100"},
      {"smiles": "CCCO[C@H]1CN[C@@H]([C@@H](O)[C@H](Cc2cc(F)cc(F)c2)NC(=O)c2cc(C(=O)N(CCC)CCC)cc(-c3ncco3)c2)C1", "note": "[Example 12, N^1-((1R,2S)-3-(3,5-difluorophenyl)-1-hydroxy-1-((2R,4R)-4-propoxypyrrolidin-2-yl)propan-2-yl)-5-(oxazol-2-yl)-N^3,N^3-dipropylisophthalamide]", "IC50": "< 100"},
      {"smiles": "CCCN(CCC)C(=O)c1cc(C(=O)N[C@@H](Cc2ccccc2)[C@H](O)[C@H]2C[C@@H](S(=O)(=O)CCC)CN2)cc(-c2ncco2)c1", "note": "[Example 17, N^1-((1R,2S)-1-hydroxy-3-phenyl-1-((2R,4R)-4-(propylsulfonyl)pyrrolidin-2-yl)propan-2-yl)-5-(oxazol-2-yl)-N^3,N^3-dipropylisophthalamide]", "IC50": "< 100"}
    ]}
  ]
}
